{
  "source": "patent US20190282560A1",
  "about": "“1-Methylnicotinamide for the Treatment of Diseases Associated With C-Reactive Protein” (Pharmena S.A., priority 2016, published 2019)",
  "tested_on": "C-reactive protein",
  "test": "Randomized, double-blind, placebo controlled, forced dose-escalation, multicenter study; hs-CRP blood levels",
  "type": "in vivo, human",
  "text": "The study was a randomized, double-blind, placebo controlled, forced dose-escalation, multicenter study.\nInclusion Criteria • Patients were at least 18 years of age and ≤80 years of age at the time of informed consent; • Women of childbearing potential must have a negative urine pregnancy test at screening and visit 4.\nExclusion Criteria • Patients who were pregnant, planning to become pregnant during the study, or nursing • Patients who had with clinically significant electrocardiographic abnormalities at visit 1 or visit 4; • Patients who had body mass index>45 kg/m2 at visit 1; • Patients who had weight change of >5% of initial body weight between visits 1 and 4 (randomization); • Patients who had poorly controlled diabetes defined as a hemoglobin A1c>9.5% prior to visit 4 (randomization); • Patients who had evidence of hepatic disease (ALT or AST greater than 2.0 ULN, bilirubin greater than 1.5 ULN, or cirrhosis) at visit 1; • Patients who had renal dysfunction defined as glomerular filtration rate (GFR)<60 mL/min/1.73 m2 at visit 1; • Patients who had hypothyroidism that was not treated or not stable for at least 6 months prior to study entry; • Patients who had poorly controlled hypertension defined as a mean systolic blood pressure above 160 mm Hg and/or diastolic blood pressure above 100 mmHg at visit 1.\nFollowing signature of informed consent, 164 patients received 1000 mg placebo three times daily with meals in a single-blind manner for a dietary-controlled baseline period of 6 to 8 weeks. From the sample of eligible subjects who completed the 6 to 8 week dietary-controlled baseline period, 71 subjects (22 received placebo and 49 received 1-MNA chloride) meeting all inclusion and no exclusion criteria were randomized in a double-blind manner ([…]) to the treatment arm. The treatment periods were: weeks 1 and 2 two 500 mg tablets administered three times daily with meals (total daily dose 3000 mg); weeks 3 to 14 two 1000 mg tablets administered three times daily with meals (total daily dose 6000 mg). Down titration to 3000 mg daily was allowed in the event that a subject could not tolerate the 6000 mg daily treatment for the stipulated period. Under this scenario, the down-titrated subject remained on the tolerated dose for the duration of the trial. hs-CRP blood levels were evaluated during the baseline period, upon randomization and throughout the active treatment period. All blood samples were collected following a 12-hour fast. Throughout the study, the subjects were required to adhere to a heart-healthy diet and abstain from/minimize ethyl alcohol intake. Safety and tolerability were assessed throughout the trial through the evaluation of physical exams, electrocardiograms, routine hematology ad blood chemistry testing, vital signs and adverse events.\nIn the analysis, adjusted geometric mean percent change was obtained by exponentiating the adjusted mean from the ANCOVA model, then subtracting 1 and multiplying by 100. Bounds of the 95% confidence intervals were obtained similarly. Based on the ANCOVA model of the change in log-transformed CRP including treatment group and log-transformed baseline value, the change in CRP level in blood in this study was approximately −17% relative to placebo.",
  "key": {"[1]": {"details": "end of study, oral 3000 mg daily weeks 1-2, 6000 mg daily weeks 3 to 14, n 45"}},
  "data": [
    {"smiles": "C[n+]1cccc(C(N)=O)c1", "note": "[1-MNA chloride, 1-methylnicotinamide]", "values": [
      {"measurement": "Lowering of blood or serum CRP level from baseline", "setting": "baseline to end of study, 3000 then 6000 mg daily, 14 weeks", "value": "about 16%"},
      {"measurement": "Adjusted geometric mean percent change from baseline in C-reactive protein", "setting": "baseline to end of study, ANCOVA on log-transformed CRP, 3000 then 6000 mg daily, 14 weeks", "value": "−15.66", "unit": "%"},
      {"measurement": "C-reactive protein, Baseline, Geometric mean", "setting": "baseline, before double-blind treatment, n 49", "value": 2.9, "unit": "mg/L"},
      {"measurement": "C-reactive protein, Baseline, Mean ± SD", "setting": "baseline, before double-blind treatment, patients with serum triglycerides 200-500 mg/dL, n 49", "value": "4.0 ± 5.4", "unit": "mg/L"},
      {"measurement": "C-reactive protein, End of study, Geometric mean", "setting": "[1]", "value": 2.4, "unit": "mg/L"},
      {"measurement": "C-reactive protein, End of study, Mean ± SD", "setting": "[1]", "value": "3.3 ± 3.2", "unit": "mg/L"},
      {"measurement": "C-reactive protein, Change from baseline to end of study, Mean ± SD", "setting": "oral 3000 mg daily weeks 1-2, 6000 mg daily weeks 3 to 14, n 45", "value": "-0.8 ± 4.7", "unit": "mg/L"}
    ]}
  ]
}
